Molecules are shown by their SMILES. Read-outs that look alike come from different tables or passages of the source.

Holding throughout (format): in vivo
Assay [1] relates to barnyardgrass (Echinochloa crus-galli). The experiment in a line: Test A greenhouse herbicide test, pre- and postemergence. Particulars: for pest or weed control at 125 g/ha / pest or weed control at 500 g/ha: Echinochloa crus-galli, 240 h; for pest or weed control at 500 g/ha: 0 to 100 scale. In a few lines:
(§1)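 Seeds in loam–sand blend received a preemergence directed soil spray; plants at 2–10 cm, one- to two-leaf stage, received postemergence sprays. Compounds in a non-phytotoxic solvent with surfactant. After about 10 d in a greenhouse, injury rated visually versus untreated controls on a 0–100 scale (100 = complete control).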

A further assay has as its system kochia (Kochia scoparia). The description is as above. Particulars: for pest or weed control at 125 g/ha / pest or weed control at 500 g/ha: Bassia scoparia, 240 h; for pest or weed control at 500 g/ha: 0 to 100 scale. In a few lines: as §1
Assay [2] relates to crabgrass, large (large crabgrass, Digitaria sanguinalis). The experiment in a line: Test C greenhouse herbicide test, pre- and postemergence. Particulars: Preemergence; for Plant response rating, Crabgrass, Large: scale 0 to 100, 0 is no effect, 100 is complete control. In a few lines: (§2)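 Pre- and postemergence greenhouse screen; values are visual control ratings, 0 meaning no effect and 100 complete kill, assigned relative to untreated plants after 13 to 15 d.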

Assay [3] deals with waterhemp (common waterhemp, Amaranthus rudis). The description is as above. Conditions: Preemergence; for Plant response rating, Waterhemp: scale 0 to 100, 0 is no effect, 100 is complete control. In a few lines:
as §2

Assay [4] relates to oilseed rape (Brassica napus). The description is as above. Conditions: Preemergence; for Plant response rating, Oilseed Rape: scale 0 to 100, 0 is no effect, 100 is complete control. In a few lines:
as §2

For assay [5], the system named is lambsquarters (Chenopodium album). The description is as above. Conditions: Preemergence; for Plant response rating, Lambsquarters: scale 0 to 100, 0 is no effect, 100 is complete control. In a few lines:
as §2

For assay [6], the system named is morningglory (Ipomoea coccinea). Described as above. Conditions: Preemergence; for Plant response rating, Morningglory: scale 0 to 100, 0 is no effect, 100 is complete control. In a few lines:
as §2

In assay [7] the test system is wheat (winter wheat, Triticum aestivum). The assay is described as above. Particulars: Preemergence; for Plant response rating, Wheat: scale 0 to 100, 0 is no effect, 100 is complete control. In a few lines:
as §2

The test system of assay [8] is johnsongrass (Sorghum halepense). The assay is described as above. Particulars: Preemergence; for Plant response rating, Johnsongrass: scale 0 to 100, 0 is no effect, 100 is complete control. In a few lines: as §2
The subject of a further assay is corn (Zea mays). The description is as above. Conditions: Preemergence; for Plant response rating, Corn: scale 0 to 100, 0 is no effect, 100 is complete control. In a few lines: as §2
Where [9] appears, read: post-emergence, Postemergence, 125 g ai/ha, visual rating after approx. 10 d, 0 to 100 scale (0 no effect, 100 complete control), read-out: Plant response rating, Barnyardgrass.
Setting [10] is: post-emergence, Postemergence, 500 g ai/ha, 0 is no effect, 100 is complete control, read-out: Barnyardgrass plant response rating.
Setting [11] is: pre-emergence, Preemergence, 125 g ai/ha, 0 to 100 scale where 0 is no effect and 100 is complete control, read-out: Barnyardgrass plant response rating.
The mark [12] stands for this setting: pre-emergence, Preemergence, 500 g ai/ha, 0 no effect, 100 complete control, read-out: Plant response rating, Barnyardgrass.
The mark [13] stands for this setting: post-emergence, Postemergence, 125 g ai/ha, visual rating after approx. 10 d, 0 to 100 scale (0 no effect, 100 complete control), read-out: Plant response rating, Kochia.
Where [14] appears, read: post-emergence, Postemergence, 500 g ai/ha, 0 is no effect, 100 is complete control, read-out: Kochia plant response rating.
Setting [15] is: pre-emergence, Preemergence, 125 g ai/ha, 0 to 100 scale where 0 is no effect and 100 is complete control, read-out: Kochia plant response rating.
The mark [16] stands for this setting: pre-emergence, Preemergence, 500 g ai/ha, 0 no effect, 100 complete control, read-out: Plant response rating, Kochia.
[17] abbreviates: Postemergence, 125 g ai/ha, 0 to 100 scale where 0 is no effect and 100 is complete control.
The mark [18] stands for this setting: Postemergence, 500 g ai/ha, visual rating after approx. 10 d, 0 to 100 scale (0 no effect, 100 complete control).
The mark [19] stands for this setting: Preemergence, 125 g ai/ha, 0 to 100 scale where 0 is no effect and 100 is complete control.
The mark [20] stands for this setting: Preemergence, 500 g ai/ha, 0 to 100 scale where 0 is no effect and 100 is complete control.
The mark [21] stands for this setting: 250 g ai/ha, scale 0 to 100, 0 no effect, 100 complete control.

With `Cc1nn(C)c(=O)c(-c2c(C)oc3cccc(C)c23)c1O` [Compound 8, 4-(2,4-dimethyl-3-benzofuranyl)-5-hydroxy-2,6-dimethyl-3(2H)-pyridazinone], the pest or weed control at 125 g/ha in assay [1] (setting [9]) and in assay [1] (setting [11]) was 0% in each case. In addition, the pest or weed control at 500 g/ha in assay [1] (setting [10]) and in [1] (setting [12]) was 0% each time.
For `Cc1ccc2oc(C)c(-c3c(OC(=O)C(C)(C)C)c(C)nn(C)c3=O)c2c1` [Compound 17, 5-(2,5-dimethyl-3-benzofuranyl)-1,6-dihydro-1,3-dimethyl-6-oxo-4-pyridazinyl 2,2-dimethylpropanoate], the pest or weed control at 125 g/ha (in assay [1] (setting [9]); in assay [1] (setting [11]); with kochia (Kochia scoparia) (setting [13]); in the assay with kochia (Kochia scoparia) (setting [15])) was 0% each time. The pest or weed control at 500 g/ha (in assay [1] (setting [10]); in assay [1] (setting [12]); in the assay on kochia (Kochia scoparia) (setting [14]); in the assay on kochia (Kochia scoparia) (setting [16])) was 0% throughout.
Consider `CC(=O)Oc1c(Cl)nn(C)c(=O)c1-c1c(C)sc2ccc(Cl)cc12` [Compound 116], for which the “Plant response rating, Barnyardgrass” value in assay [1] (setting [17]) is on record as 20; in assay [1] (setting [18]) it was 90; in assay [1] (setting [20]), 100. Also, the “Barnyardgrass plant response rating” value in assay [1] (setting [19]) amounted to 70. The “Plant response rating, Kochia” value in the assay on kochia (Kochia scoparia) (setting [17]) was found to be 30; in the assay with kochia (Kochia scoparia) (setting [18]) it was 60; in the assay with kochia (Kochia scoparia) (setting [20]), 100. For the same compound, the “Kochia plant response rating” value with kochia (Kochia scoparia) (setting [19]) was determined as 30. Further, the “Plant response rating, Crabgrass, Large” value in [2] (31 g ai/ha) came to 0; in assay [2] (62 g ai/ha) it was 20; in [2] (125 g ai/ha) it was 50. The “Crabgrass, Large plant response rating” value in [2] (setting [21]) stood at 90. The “Plant response rating, Waterhemp” value was determined as 55 in assay [3] (31 g ai/ha), 70 in assay [3] (62 g ai/ha) and 80 in assay [3] (125 g ai/ha). Also, the “Waterhemp plant response rating” value in [3] (setting [21]) was determined as 100. Further, the figures for the “Plant response rating, Oilseed Rape” value in assay [4] (31 g ai/ha), in assay [4] (62 g ai/ha) and in [4] (125 g ai/ha) were 85, 80 and 95, respectively. Moreover, the “Oilseed Rape plant response rating” value in assay [4] (setting [21]) was found to be 100. Besides, the “Plant response rating, Lambsquarters” value in assay [5] (31 g ai/ha) amounted to 65; in [5] (62 g ai/ha), 98; in assay [5] (125 g ai/ha), 90. Further, the “Lambsquarters plant response rating” value in [5] (setting [21]) is reported as 95. The “Plant response rating, Morningglory” value in assay [6] (31 g ai/ha) came out at 55; in [6] (62 g ai/ha), 80; in assay [6] (125 g ai/ha) it was 85. Besides, in assay [6] (setting [21]), the “Morningglory plant response rating” value is 98. Further, the “Plant response rating, Wheat” value in assay [7] (31 g ai/ha) came out at 0; in assay [7] (62 g ai/ha), 0; in assay [7] (125 g ai/ha), 5. Moreover, the “Wheat plant response rating” value in assay [7] (setting [21]) stood at 15. In addition, the “Plant response rating, Johnsongrass” value in assay [8] (31 g ai/ha), in assay [8] (62 g ai/ha) and in [8] (125 g ai/ha) was 0 throughout. The “Johnsongrass plant response rating” value in [8] (setting [21]) came out at 10. The “Plant response rating, Corn” value is on record as 0 with corn (Zea mays) (31 g ai/ha), 0 in the assay on corn (Zea mays) (62 g ai/ha) and 60 in the assay with corn (Zea mays) (125 g ai/ha). In the assay with corn (Zea mays) (setting [21]), the “Corn plant response rating” value is listed as 25.
As to `Cc1cc(C)c2oc(C)c(-c3c(OC(=O)C(C)(C)C)c(C)nn(C)c3=O)c2c1` [Compound 18, 1,6-dihydro-1,3-dimethyl-6-oxo-5-(2,5,7-trimethyl-3-benzofuranyl)-4-pyridazinyl 2,2-dimethylpropanoate], the pest or weed control at 125 g/ha (in [1] (setting [9]); in assay [1] (setting [11]); in the assay with kochia (Kochia scoparia) (setting [13]); in the assay with kochia (Kochia scoparia) (setting [15])) was 0% each time. For the same compound, the pest or weed control at 500 g/ha came to 40% in assay [1] (setting [10]), 0% in assay [1] (setting [12]), 0% in the assay with kochia (Kochia scoparia) (setting [14]) and 0% in the assay on kochia (Kochia scoparia) (setting [16]).

For the origin of these results see patent US10597388B2, “Pyridazinone herbicides” (FMC CORPORATION, priority 2014, dated 2020).
